Source: patent US11129801B2 (SigmaThera SAS, priority 2016, dated 2021)

Tests used:
Assay type in all cases: in vivo
[1] = system: Aβ25-35 mouse model of Alzheimer's disease; assay: Aβ25-35 mouse model, overall neuroprotection (summary statements)
Procedure: (§1) The compound efficacy was evaluated 7 days after the peptide administration on the attenuation of the Aβ25-35-induced learning deficits (spatial working memory using the spontaneous alternation in the Y-maze test, and contextual long-term memory using the passive avoidance test).
(§2) The mice were tested 7 days post injection or at the indicated time points.
(§3) In Experiment 2, twelve mice per experimental group were administered Sc.Aβ or Aβ25-35-amyloid peptide on day 0 by i.c.v. injection. […] Animals were tested at day 7 and later.
The synergy/additivity/antagonism was evaluated by calculating the combination index. […] Animals were then tested at day 7 and later.
Animals were tested at day 7 and later.
(§4) For each of Experiments 1-4, on day 7, all animals were tested for the spontaneous alternation performance in the Y-maze test, an index of spatial working memory. On day 8 and 9, the contextual long-term memory of the animals was assessed using the step-through type passive avoidance procedure. On day 9, immediately after the retention session, animals were sacrificed by decapitation and the hippocampus and cortex dissected out. Lipid peroxidation was analyzed in the hippocampus, whereas neuroinflammation, apoptosis, amyloid burden and hyperphosphorylation of tau protein were analyzed in cortex.

[2] = system: hippocampal lipid peroxidation; assay: Hippocampal lipid peroxidation (LPO) measurement, Aβ25-35 mouse model; settings: for hippocampal LPO levels: 1 mg/kg
Procedure: as §4
Sacrifice: At the end of the passive avoidance retention session, on day 9, the animals were sacrificed by decapitation. The hippocampi and frontal cortex were dissected out and kept at −80° C. until the measurement of lipid peroxidation and other markers.
Lipid peroxidation measurement: At day 24, 6 hippocampi from each group were used. After thawing, homogenates were homogenized in cold methanol ( 1/10 w/v), centrifuged at 1,000 g during 5 min and the supernatant placed in Eppendorf tube. The reaction volume of each homogenate was added to FeSO4 1 mM, H2SO4 0.25 M, xylenol orange 1 mM and incubated for 30 min at room temperature. After reading the absorbance at 580 nm (A5801), 10 μl of cumene hydroperoxyde (CHP) 1 mM was added to the sample and incubated for 30 min at room temperature, to determine the maximal oxidation level. The absorbance was measured at 580 nm (A5802). The level of lipid peroxidation was determined as CHP equivalents according to: CHPE=A5801/A5802×[CHP (nmol)] and expressed as CHP equivalents per wet weight of tissue and as percentage of control group data (Veh-treated Sc.Aβ-administered mice).

[3] = system: Tau protein phosphorylated on Serine 199 (pTauS199); assay: ELISA of cortical pTauS199, Aβ25-35 mouse model; settings: Experiment 2, post-treatment
Procedure: as §3, §4
(§5) Enzyme-linked immunosorbant assay (ELISA) assays: Contents in GFAP, Caspase 12, Amyloid-beta 1-40, Amyloid-beta 1-42, Total Tau, and pTau on Ser199 were analyzed by using commercial ELISA assay kit. • GFAP: Supplier: USCNK #Ref: SEA068Mu • Total Tau: Supplier: Novex #Ref: KMB7011 • pTau (S199): Supplier: Novex #Ref: KMB7041 • Amyloid beta 1-40: Supplier: Novex #Ref: KMB3481 • Amyloid beta 1-42: Supplier: Novex #Ref: KMB3441 • Caspase-12: Supplier: LSBio #Ref: LS-F11023 • BAX: Supplier: Euromedex#Ref: SEB343Mu • BCL2: Supplier: Euromedex #Ref: SEA778Mu […]

Aβ1-42 = assay: ELISA of cortical Aβ1-42, Aβ25-35 mouse model; settings: Experiment 2, post-treatment
Procedure: as §3, §4, §5

[4] = system: Aβ25-35 mouse model of Alzheimer's disease; assay: Step-through passive avoidance test, Aβ25-35 mouse model
Procedure: as §1, §2, §3
Each of these doses was, by itself, unable to produce any protective effect. The synergy/additivity/antagonism was evaluated by calculating the combination index. […] Animals were then tested at day 7 and later.
as §4
The homogeneous oligomeric preparation of Aβ25-35 peptide was performed according to the AMYLGEN's own procedure. Each mouse was anesthetized with isoflurane 2.5% and injected i.c.v. with Aβ25-35 peptide (9 nmol/mouse) or Sc.Aβ peptide (9 nmol/mouse), in a final volume of 3 μl/mouse, according to the previously described method (Maurice T, et al. (1996). Brain Res. 706(2): 181-193, Maurice T, et al. (1998) Neuroscience 83(2): 413-428, Meunier J, et al. (2006) British J. Pharmacol. 149(8): 998-1012, Villard V, et al. (2009) Neuropsychopharmacology 34(6): 1552-1566, Villard V, et al. (2011) J. Pharmacol. Sci. 115(3): 279-292).
Animals: Male Swiss mice, 6 weeks old and weighing 30-35 g, from JANVIER (Saint Berthevin, France), were kept for housing and experiments took place within the animal facility building of the University of Montpellier 2 (CECEMA, Office of Veterinary Services agreement #B-34-172-23). Animals were housed in groups with access to food and water ad libitum, except during behavioral experiments. They were kept in a temperature and humidity controlled animal facility on a 12 h/12 h light/dark cycle (lights off at 07:00 pm). […]
Passive avoidance test: The passive avoidance task was used to evaluate learning and memory in mice treated with igmesine. […] The step-through latency, that is, the latency spent to enter the dark compartment, and the number of vocalizations was recorded. […]

[5] = Experiment 1, pre-treatment, 0.1, 0.3, 1 mg/kg i.p.
[6] = Experiment 2, post-treatment day 1 to day 6

## CCC(C/C=C/c1ccccc1)(c1ccccc1)N(C)CC1CC1 (single isomer, unassigned; (+)) [igmesine, (+)-(E)-N-(cyclopropylmethyl)-N-methyl-3,6-diphenylhex-5-en-3-amine]
[1]; combined with donepezil, ibuprofen, selegiline or atorvastatin
  dose in combination versus dose active on depression (fold lower): 300 fold
[1]; given 20 min before Aβ25-35
  lowest dose with effect, preventive treatment: 0.3 mg/kg
[1]; starting 1 day after induction of the toxicity
  lowest dose with effect, curative treatment: 1 mg/kg
[1]; with donepezil, ibuprofen, selegiline or atorvastatin, not with memantine
  synergistic effect in combination: clear synergistic effect
[2]; Experiment 1, pre-treatment
  hippocampal LPO levels: fully normalized
[2]; Experiment 2, post-treatment
  hippocampal LPO levels: fully normalized
[2]; Experiment 3, igmesine 0.1 mg/kg + donepezil […]
  synergy on hippocampal LPO with donepezil: did synergize
[2]; Experiment 3, igmesine 0.1 mg/kg + memantine
  synergy on hippocampal LPO with memantine: synergy was not present
[3]
  elevation of cortical pTauS199: fully normalized
Aβ1-42
  cortical Aβ1-42 elevation: fully normalized
[4]; [5]
  prevention of passive avoidance deficits, escape latency: at the highest dose
  prevention of passive avoidance deficits, step-through latency: significant prevention at the two highest dose tested
[4]; [6]
  prevention of passive avoidance deficits, escape latency: significant prevention at the highest dose tested
  prevention of passive avoidance deficits, step-through latency: significant prevention at the highest dose tested
